Data from patent US20260021061A1, “ARIADNE AND ANALOGS FOR THE TREATMENT OF NEUROLOGICAL AND NEUROMUSCLAR DISORDERS” (priority 2022, published 2026).

How the values were obtained:
[1] = molecular target: T1, Serotonin (5-Hydroxytryptamine) 5-HT1A (Homo sapiens, UniProt P08908); experiment: SafetyScreen44 271110; type: binding; conditions: 10 μM; [3H]8-OH-DPAT; recombinant
T1 construct: purchased Eurofins-Panlabs (contract screen SafetyScreen44) assay ID 271110
Experimental: A broad screen of 44 molecular targets (SafetyScreen44, Eurofins-Panlabs) for Ariadne were performed, which includes G protein-coupled receptors, steroid nuclear receptors, ion channels, neurotransmitter transporters, and metabolic and signaling enzymes. Only two molecular targets, 5-HT2A and 5-HT2B receptors, emerged above the positive hit threshold, defined as 50% displacement of standard radioligands by 10 uM concentration of Ariadne (FIG. 1b, and Table 1).
For species, “H”=human, “R”=rat. Test compound screened at all targets at concentration of 10 μM.

[2] = tested on: auxilin knockout (KO) mice; experiment: Balance beam test in auxilin KO mouse model of Parkinson's Disease; type: in vivo; conditions: Aux-KO mice 9-12 months; 10 mg/kg intraperitoneal; 15 to 30 minutes after treatment
Excerpt: R-Ariadne ameliorates motor abnormalities in a mouse model of Parkinson's Disease. In the 1978 patent from the Bristol Laboratories, the inventors noted complete remission of Parkinson's symptoms in two patients (Partyka el al., U.S. Pat. No. 4,105,695, 1978). To address and examine these claims via reverse translation in mice, we used a novel model of PD based on auxilin knockout (KO) mice (Vidyadhara et al., 2022). Auxilin is a clathrin uncoating protein that participates in clathrin mediated endocytosis of synaptic vesicles (SV), enabling SV recycling and neurotransmission (Vidyadhara et al., 2022). Loss-of-function mutations in auxilin (DNAJC6/PARK19) cause PD. Auxilin KO mice display cardinal features of PD such as progressive motor deficits, nigral dopaminergic neuronal loss, α-synuclein pathology, and neuroinflammation. 9-12 month old Aux-KO mice were previously shown to respond to L-DOPA treatment, which ameliorated PD-like motor abnormalities (Vidyadhara et al., 2022). […] The balance beam test evaluates fine motor skills such as ability to walk on a raised narrow beam to reach a safety box, measured as a number of runs/minute and time taken to cross the beam (FIGS. 9-10). […]

T1 sequence (P08908 whole entry): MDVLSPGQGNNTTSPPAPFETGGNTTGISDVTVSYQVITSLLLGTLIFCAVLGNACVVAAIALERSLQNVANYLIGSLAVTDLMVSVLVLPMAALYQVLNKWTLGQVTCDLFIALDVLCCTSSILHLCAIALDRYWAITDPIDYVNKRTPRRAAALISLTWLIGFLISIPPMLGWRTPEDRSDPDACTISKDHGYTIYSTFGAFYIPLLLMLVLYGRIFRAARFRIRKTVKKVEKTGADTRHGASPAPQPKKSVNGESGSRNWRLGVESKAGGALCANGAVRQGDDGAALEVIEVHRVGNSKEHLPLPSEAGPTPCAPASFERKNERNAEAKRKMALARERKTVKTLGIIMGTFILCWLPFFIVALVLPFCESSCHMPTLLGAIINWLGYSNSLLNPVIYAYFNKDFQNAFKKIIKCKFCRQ

| Compound | % Response [1] [%] | number of balance beam runs per minute [2] |
| --- | --- | --- |
| CCC(N)Cc1cc(OC)c(C)cc1OC (racemic) [Compound 32, 1-(2,5-dimethoxy-4-methylphenyl)butan-2-amine] | 36 |  |
| CC[C@@H](N)Cc1cc(OC)c(C)cc1OC [(R)-Ariadne] |  | significantly higher and comparable to WT mice |
